The results in this text go back to patent publication US20260274892A1, “MACROCYCLIC BROAD SPECTRUM ANTIBIOTICS” (RQx Pharmaceuticals, Inc., priority 2017, published 2026).

The test concerns Escherichia coli ATCC 25922. As to the kind of experiment: Minimum inhibitory concentration (MIC), CLSI broth micro-dilution, E. coli. In kind it is cell-based. The following applies: Escherichia coli. An outline of the steps:
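Colonies grown 20 h at 35° C on Trypticase Soy agar (MRSA) or Luria agar (E. coli) were suspended in cation-adjusted Mueller Hinton broth with 0.002% Tween-80. Suspensions were added at OD600 0.0005 to 10-point twofold compound dilutions, then incubated 22 h at 35° C.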
For orientation: Broth dilution looks for growth in wells or tubes with falling amounts of substance.

The mark [1] stands for this setting: ATCC25922, 22 h, Table 7, cation adjusted Mueller Hinton Broth + 0.002% Tween-80, 35° C.
The mark [2] stands for this setting: ATCC25922, Table 6, cation adjusted Mueller Hinton Broth + 0.002% Tween-80, 35° C., 22 hours.

What is called MIC is the lowest concentration that inhibits growth of the organism. For `Cc1nc(-c2ccc(C(C)(C)C)cc2)nc(C)c1C(=O)N[C@@H](CNS(N)(=O)=O)C(=O)N(C)[C@@H]1C(=O)N[C@@H](C)C(=O)N[C@H](C(=O)NCC#N)Cc2ccc(OCCCN)c(c2)-c2cc1ccc2OCCCN` (racemic) [Compound 575, rac-(8S,11S,14S)-3,18-bis(3-aminopropoxy)-N-(cyanomethyl)-11-methyl-14-[methyl-[rac-(2S)-2-[[2-(4-tert-butylphenyl)-4,6-dimethyl-pyrimidine-5-carbonyl]amino]-3-(sulfamoylamino)propanoyl]amino]-10,13-dioxo-9,12-diazatricyclo[13.3.1.12,6]icosa-1(18),2(20),3,5,15(19),16-hexaene-8-carboxamide], under setting [1], the MIC was 0.31 µM. For `Cc1nc(-c2ccc(C(C)(C)C)cc2)nc(C)c1C(=O)N[C@@H](CCN)C(=O)N(C)[C@@H]1C(=O)N[C@@H](C)C(=O)N[C@H](C(=O)NCC#N)Cc2cc(NC(N)=O)c(OCCN)c(c2)-c2cc1ccc2OCCN` (racemic) [Compound 619, rac-(8S,11S,14S)-3,18-bis(2-aminoethoxy)-N-(cyanomethyl)-11-methyl-14-[methyl-[rac-(2S)-4-amino-2-[[2-(4-tert-butylphenyl)-4,6-dimethyl-pyrimidine-5-carbonyl]amino]butanoyl]amino]-10,13-dioxo-4-ureido-9,12-diazatricyclo[13.3.1.12,6]icosa-1(18),2(20),3,5,15(19),16-hexaene-8-carboxamide], the MIC (ATCC25922, Table 7, cation adjusted Mueller Hinton Broth + 0.002% Tween-80, 35° C., 22 hours) was 0.13 µM. As for `Cc1cc(-c2ccc(C(C)(C)C)cc2[N+](=O)[O-])nc(C)c1C(=O)N[C@@H](CCN)C(=O)N(C)[C@@H]1C(=O)N[C@@H](C)C(=O)N[C@H](C(=O)NCC#N)Cc2ccc(OCCN)c(c2)-c2cc1ccc2OCCN` (racemic) [Compound 368, rac-(8S,11S,14S)-3,18-bis(2-aminoethoxy)-N-(cyanomethyl)-11-methyl-14-[methyl-[rac-(2S)-4-amino-2-[[6-(4-tert-butyl-2-nitro-phenyl)-2,4-dimethyl-pyridine-3-carbonyl]amino]butanoyl]amino]-10,13-dioxo-9,12-diazatricyclo[13.3.1.12,6]icosa-1(18),2(20),3,5,15(19),16-hexaene-8-carboxamide], under setting [2], the MIC was found to be 0.5 µM. As for `CONCC[C@H](NC(=O)c1cnc(-c2ccc(C(C)(C)C)cc2)nc1C)C(=O)N(C)[C@@H]1C(=O)N[C@@H](C)C(=O)N[C@H](C(=O)NCC#N)Cc2ccc(OCCN)c(c2)-c2cc1ccc2OCCN` (racemic) [Compound 460, rac-(8S,11S,14S)-3,18-bis(2-aminoethoxy)-N-(cyanomethyl)-11-methyl-14-[methyl-[rac-(2S)-2-[[2-(4-tert-butylphenyl)-4-methyl-pyrimidine-5-carbonyl]amino]-4-(methoxyamino)butanoyl]amino]-10,13-dioxo-9,12-diazatricyclo[13.3.1.12,6]icosa-1(18),2(20),3,5,15(19),16-hexaene-8-carboxamide], under setting [2], the MIC came out at 4.1 µM. As for `Cc1nc(-c2ccc(OC(C)C)cc2)nc(C)c1C(=O)N[C@@H](CNS(N)(=O)=O)C(=O)N(C)[C@@H]1C(=O)N[C@@H](C)C(=O)N[C@H](C(=O)NCC#N)Cc2ccc(OC[C@H](O)CN)c(c2)-c2cc1ccc2OC[C@H](O)CN` (racemic) [Compound 579, rac-(8S,11S,14S)-N-(cyanomethyl)-11-methyl-14-[methyl-[rac-(2S)-2-[[2-(4-isopropoxyphenyl)-4,6-dimethyl-pyrimidine-5-carbonyl]amino]-3-(sulfamoylamino)propanoyl]amino]-10,13-dioxo-3,18-bis[rac-(2R)-3-amino-2-hydroxy-propoxy]-9,12-diazatricyclo[13.3.1.12,6]icosa-1(18),2(20),3,5,15(19),16-hexaene-8-carboxamide], the MIC under setting [1] is 0.75 µM.

`COc1c(OCCN)cc2cc1-c1cc(cc(OCCN)c1OC)[C@H](N(C)C(=O)[C@H](CCN)NC(=O)c1c(C)nc(-c3ccc(C(C)(C)C)cc3)nc1C)C(=O)N[C@@H](C)C(=O)N[C@H](C(=O)NCC#N)C2` (racemic) [Compound 592, rac-(8S,11S,14S)-4,17-bis(2-aminoethoxy)-N-(cyanomethyl)-3,18-dimethoxy-11-methyl-14-[methyl-[rac-(2S)-4-amino-2-[[2-(4-tert-butylphenyl)-4,6-dimethyl-pyrimidine-5-carbonyl]amino]butanoyl]amino]-10,13-dioxo-9,12-diazatricyclo[13.3.1.12,6]icosa-1(18),2(20),3,5,15(19),16-hexaene-8-carboxamide]: the MIC under setting [1] came out at 0.19 µM.

In the case of `Cc1nc(-c2ccc(C(C)(C)C)cc2)nc(C)c1C(=O)N[C@@H](CCN)C(=O)N(C)[C@@H]1C(=O)N[C@@H](C)C(=O)N[C@H](C(=O)NCC#N)Cc2ccc(O)c(c2)-c2cc1cc(OCCN)c2OCCN` [Compound 633, (8S,11S,14S)-14-[[(2S)-4-amino-2-[[2-(4-tert-butylphenyl)-4,6-dimethyl-pyrimidine-5-carbonyl]amino]butanoyl]-methyl-amino]-17,18-bis(2-aminoethoxy)-N-(cyanomethyl)-3-hydroxy-11-methyl-10,13-dioxo-9,12-diazatricyclo[13.3.1.12,6]icosa-1(18),2(20),3,5,15(19),16-hexaene-8-carboxamide], the minimal inhibitory concentration (MIC) under setting [1] worked out at 0.047 µM. Regarding `Cc1nc(-c2ccc(OC3CCCCCC3)cc2)nc(N)c1C(=O)N[C@@H](CCN)C(=O)N(C)[C@@H]1C(=O)N[C@@H](C)C(=O)N[C@H](C(=O)NCC#N)Cc2ccc(OCCN)c(c2)-c2cc1ccc2OCCN` (racemic) [Compound 532, rac-(8S,11S,14S)-3,18-bis(2-aminoethoxy)-N-(cyanomethyl)-11-methyl-14-[methyl-[rac-(2S)-4-amino-2-[[4-amino-2-[4-(cycloheptoxy)phenyl]-6-methyl-pyrimidine-5-carbonyl]amino]butanoyl]amino]-10,13-dioxo-9,12-diazatricyclo[13.3.1.12,6]icosa-1(18),2(20),3,5,15(19),16-hexaene-8-carboxamide], the MIC (ATCC25922, 22 h, Table 6, cation adjusted Mueller Hinton Broth + 0.002% Tween-80, 35° C.) was 0.063 µM. With `Cc1nc(-c2ccc(C(C)(C)C)cc2)nc(C)c1C(=O)N[C@@H](CCN)C(=O)N(C)[C@@H]1C(=O)N[C@@H](C)C(=O)N[C@H](C(=O)NCC#N)Cc2ccc(O)c(c2)-c2cc1ccc2OC1CNC1` (racemic) [Compound 604, rac-(8S,11S,14S)-18-(azetidin-3-yloxy)-N-(cyanomethyl)-3-hydroxy-11-methyl-14-[methyl-[rac-(2S)-4-amino-2-[[2-(4-tert-butylphenyl)-4,6-dimethyl-pyrimidine-5-carbonyl]amino]butanoyl]amino]-10,13-dioxo-9,12-diazatricyclo[13.3.1.12,6]icosa-1(18),2(20),3,5,15(19),16-hexaene-8-carboxamide], the MIC under setting [1] was found to be 0.75 µM. `Cc1nc(-c2ccc(C(C)(C)C)cc2)ncc1C(=O)N[C@@H](CCNC=O)C(=O)N(C)[C@@H]1C(=O)N[C@@H](C)C(=O)N[C@H](C(=O)NCC#N)Cc2ccc(OCCN)c(c2)-c2cc1ccc2OCCN` (racemic) [Compound 494, rac-(8S,11S,14S)-3,18-bis(2-aminoethoxy)-N-(cyanomethyl)-11-methyl-14-[methyl-[rac-(2S)-2-[[2-(4-tert-butylphenyl)-4-methyl-pyrimidine-5-carbonyl]amino]-4-formamido-butanoyl]amino]-10,13-dioxo-9,12-diazatricyclo[13.3.1.12,6]icosa-1(18),2(20),3,5,15(19),16-hexaene-8-carboxamide]: the MIC under setting [2] worked out at 1.1 µM.

For `CNCCOc1ccc2cc1-c1cc(ccc1O)C[C@@H](C(=O)NCC#N)NC(=O)[C@H](C)NC(=O)[C@H]2N(C)C(=O)[C@H](CCN)NC(=O)c1c(C)nc(-c2ccc(C(C)(C)C)cc2)nc1C` (racemic) [Compound 600, rac-(8S,11S,14S)-N-(cyanomethyl)-3-hydroxy-11-methyl-18-[2-(methylamino)ethoxy]-14-[methyl-[rac-(2S)-4-amino-2-[[2-(4-tert-butylphenyl)-4,6-dimethyl-pyrimidine-5-carbonyl]amino]butanoyl]amino]-10,13-dioxo-9,12-diazatricyclo[13.3.1.12,6]icosa-1(18),2(20),3,5,15(19),16-hexaene-8-carboxamide], the MIC under setting [1] amounted to 0.38 µM. Consider `Cc1nc(-c2ccc(OC3CCCCC3)cc2)nc(C)c1C(=O)N[C@@H](CNS(N)(=O)=O)C(=O)N(C)[C@@H]1C(=O)N[C@@H](C)C(=O)N[C@H](C(=O)NCC#N)Cc2ccc(OCCN)c(c2)-c2cc1ccc2O` (racemic) [Compound 616, rac-(8S,11S,14S)-3-(2-aminoethoxy)-N-(cyanomethyl)-18-hydroxy-11-methyl-14-[methyl-[rac-(2S)-2-[[2-[4-(cyclohexoxy)phenyl]-4,6-dimethyl-pyrimidine-5-carbonyl]amino]-3-(sulfamoylamino)propanoyl]amino]-10,13-dioxo-9,12-diazatricyclo[13.3.1.12,6]icosa-1(18),2(20),3,5,15(19),16-hexaene-8-carboxamide], for which, under setting [1], the MIC is 0.5 µM.

In the case of `Cc1nc(-c2ccc(C(C)(C)C)cc2)ncc1C(=O)N[C@@H](CCN)C(=O)N(C)[C@@H]1C(=O)N[C@@H](C)C(=O)N[C@H](C(=O)O)Cc2ccc(OCCN)c(c2)-c2cc1ccc2OCCN` (racemic) [Compound 640, rac-(8S,11S,14S)-3,18-bis(2-aminoethoxy)-11-methyl-14-[methyl-[rac-(2S)-4-amino-2-[[2-(4-tert-butylphenyl)-4-methyl-pyrimidine-5-carbonyl]amino]butanoyl]amino]-10,13-dioxo-9,12-diazatricyclo [13.3.1.12,6]icosa-1(18),2(20),3,5,15(19), 16-hexaene-8-carboxylic acid], where the note is “ATCC25922, 22 h, Table 8, cation adjusted Mueller Hinton Broth + 0.002% Tween-80, 35° C.”, the MIC came to 0.25 µM.
